The values below come from PubChem BioAssay (NCI).

Structures are written as SMILES. Where “and” joins values, the source holds several entries; their conditions need not be identical. Equal values may be shown once.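 Compound exposure: 48 hours, 5 concentrations, 96-well plates. GI50 marks 50% less growth. TGI: total growth inhibition.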

Common to all, as to experiment: NCI anticancer screen, dose series, 48 h
Test [1] concerns A498 renal.
Test [2] has as its system LOX IMVI melanoma.
The test system of test [3] is OVCAR-5 ovarian.
In test [4] the test system is SF-539 CNS.
The subject of test [5] is SR leukemia.
For test [6], the system named is HOP-92 NSCLC.
The test system of test [7] is SK-MEL-2 melanoma.
Test [8] has as its system MCF7 breast.
For test [9], the system named is NCI-H226 lung.
In test [10] the test system is MALME-3M melanoma.

`Cc1cnc2oc3ccc(O)cc3c2c1-c1ccccc1`: the GI50 in test [1] is 21500 nM; in [2], 21600 nM; in test [3], over 100000 nM; in test [4] it was 16100 nM; in test [5], over 100000 nM; in [6] it was 3340 nM. In addition, the GI50 in test [7] was over 100000 nM; in test [8] it was 41000 nM; in test [9] it was 9350 nM; in test [10], 32500 nM. Also, the TGI in test [1] is 70500 nM; in test [2], over 100000 nM; in test [3] it was over 100000 nM; in test [4], 37500 nM; in test [5], over 100000 nM; in [6], 38500 nM. In addition, the TGI in test [7] was over 100000 nM; in test [8], over 100000 nM; in test [9] it was 44200 nM; in test [10], over 100000 nM.

With `CCc1cnn2c(NCc3ccc[n+]([O-])c3)cc(N3CCCC[C@H]3CCO)nc12`, the GI50 was 2.9 nM in test [1]; < 10 nM and 2.76 nM in [2]; < 10 nM and 4.92 nM in [3]; < 10 nM and 2.28 nM in test [4]; < 10 nM and 1.6 nM in [5]; < 14.2 nM and 2.99 nM in [6]. For the same compound, the GI50 is < 10 nM and 3.15 nM in [7]; < 10 nM and 2.21 nM in [8]; < 12.9 nM and 6.89 nM in test [9]; < 12.6 nM and 7.54 nM in test [10]. Besides, the TGI in test [1] is 9.04 nM; in test [2], over 100000 nM; in test [3], over 35700 nM; in [4], < 11.6 nM and 7.56 nM; in test [5], under 10 nM; in test [6], < 26.9 nM and 14.5 nM. Besides, the TGI in test [7] was 23.7 nM and 10.7 nM; in test [8] it was over 100000 nM; in test [9] it was 39.5 nM; in test [10], 27.2 nM and 32.4 nM.

`Cn1cc(C2=C(c3cn(-c4ccccc4)c4ccccc34)C(=O)NC2=O)c2ccccc21`: the GI50 was over 16200 nM in test [1]; 19200 nM in test [2]; over 25000 nM in test [3]; over 25000 nM in test [4]; 9370 nM in test [5]; over 25000 nM in test [6]. Besides, the GI50 in test [7] is 9140 nM; in test [8], 9300 nM; in [9], over 25000 nM; in [10] it was 14900 nM. The TGI in test [1], in [2], in [3], in test [4], in test [5] and in test [6] was over 25000 nM each time. In addition, the TGI in [7], in test [8], in [9] and in test [10] was over 25000 nM each time.

Turning to `COc1ccc(CCN(CC(=O)N(CC(N)=O)C2CCC[C@@H]2OCc2ccccc2)C(=O)CN(C(=O)CN(CCc2ccc(Cl)cc2)C(=O)CN(C(=O)CN(C)Cc2ccccc2F)[C@H](C)C2CCCCC2)[C@H](C)C2CCCCC2)cc1OC` (stereo not given in full), the GI50 in test [1] is 1840 nM; in test [2], 1080 nM; in test [3] it was 2240 nM; in test [4], 1430 nM; in test [5], 690 nM; in [6] it was 1300 nM. Besides, the GI50 was 946 nM in test [7], 1170 nM in test [8], 1860 nM in [9] and 1660 nM in test [10]. For the same compound, the TGI in [1] was over 50000 nM; in [2], 2770 nM; in test [3], over 50000 nM; in test [4], 4540 nM; in [5], 2230 nM; in [6] it was 31300 nM. In addition, the TGI in [7] is 2840 nM; in [8], over 50000 nM; in test [9], 41700 nM; in [10] it was 46200 nM.
